These results are taken from US5869500A, “Pyridone compounds useful in treating Alzheimer's disease” (Hoffmann-La Roche Inc., priority 1996, dated 1999).

Some results are limits rather than exact numbers.

In the experiment the test system is Aβ production in HEK cells over-expressing mutated β-APP (SFAD). Description: Aβ production inhibition, sandwich-ELISA in HEK cells, over-expressed mutated β-APP (SE-SFAD). Type of experiment: cell-based, human. The settings on record: Homo sapiens, HEK293, HEK cells; for IC50: based on the respective plateau of maximum inhibition; for Emax: maximum inhibition plateau, read-out: SE-SFAD max. inhibition %. On the procedure: The effect of test substances on the inhibition of Aβ-amyloid production can be measured in the supernatant of cell cultures of β-APP expressed cells using ELISA tests or other quantitative determination methods for β-APP degradation products. Typically, 8×10^5 cells (e.g. HEK cells, which express recombinant human β-APP variants) are plated out in each well of a culture dish having 24 wells in growth media such as e.g. OPTIMEM (Gibco) and the test compound is then added. After an incubation period of 24 to 48 hours at 37° C. in a 10% CO2 atmosphere the supernatant is removed from the cell cultures and the β-APP degradation products (e.g. Aβ or β-[…]) are determined with the aid of ELISA (or sandwich ELISA) analysis or by means of quantitative immunoprecipitation (after metabolic radiolabelling of the cell proteins). Typically, 300 μl of the cell supernatant are tested according to the state of the art for ELISA tests in culture dishes having 96 wells. In the case of sandwich ELISA for Aβ, the binding antibody can be directed against the first 16 amino acids of Aβ-peptide (e.g. 6E10 Senetek, Maryland Heights, Mo.) and the detection antibody can be directed against amino acids 17-40 or 17-42 of Aβ and carries a detection system such as e.g. peroxidase. A simple ELISA test with an antibody, e.g. 22C11 (Boehringer Mannheim), can be used as the test for […]; the second antibody can be an anti-(mouse) Ig having a detection system, such as e.g. peroxidase. The peroxidase reaction can be carried out e.g. using a TMB substrate (BioRAD) and the measurements can be carried out at 650 nm using an ELISA reading apparatus. […] SE-SFAD signifies the Aβ production inhibition measured using sandwich-ELISA in HEK cells, SFAD signifies over-expressed mutated β-APP, and SE-WT signifies the Aβ production inhibition measured using sandwich-ELISA in HEK cells which over-express Wild type β-APP. The IC50 values are based on the respective plateau of maximum inhibition.
Background: ELISA stands for enzyme-linked immunosorbent assay.

`O=C(O[C@@H]1CN(C(=O)OCc2ccccc2)C[C@@H]1O)c1cc(-c2ccccc2)c(=O)n2ccc3ccsc3c12` (racemic) [Compound 57, (3RS,4SR)-1-Benzyloxy-carbonyl-4-hydroxy-pyrrolidin-3-yl 7-oxo-8-phenyl-7H-thieno[2,3-a]quinolizine-10-carboxylate]: the IC50 (usually the concentration that inhibits the measured activity by half) stood at 500 nM and the Emax came to 35%.
Taken in the same sequence, the figures for `COCCN(C(=O)c1cc(-c2ccc(OCc3ccccc3)cc2)c(=O)n2ccc3cc(C(C)O)sc3c12)c1ccccc1` (racemic) [Compound 75, (RS)-8-(4-Benzyloxy-phenyl)-2-(1-hydroxy-ethyl)-7-oxo-7H-thieno[2,3-a]quinolizine-10-carboxylic acid (2-methoxy-ethyl)-phenyl-amide] were 1300 nM and 100%.
Taken in the same sequence, the figures for `O=C1CN(C(=O)c2cc(-c3ccccc3)c(=O)n3ccc4ccsc4c23)C1` [Compound 7, 10-(3-Oxo-azetidin-1-carbonyl)-8-phenyl-thieno[2,3-a]quinolizin-7-one] were 50000 nM and 100%.
For the compound `COC(=O)c1cc(-c2ccccc2)c(=O)n2ccc3ccsc3c12` [Compound 15, Methyl 7-oxo-8-phenyl-7H-thieno[2,3-a]quinolizine-10-carboxylate], the IC50 worked out at 3000 nM and the Emax is 60%.
In the case of `COC(=O)c1cc(-c2cccc(C(F)(F)F)c2)c(=O)n2ccccc12` [Compound 17, Methyl 4-oxo-3-(3-trifluoromethyl-phenyl)-4H-quinolizine-1-carboxylate], the IC50 came to 500 nM and the Emax is 30%.
As for `O=C(NC1CCCCC1O)c1cc(-c2ccccc2)c(=O)n2ccc3ccsc3c12` (stereo not drawn) [Compound 25], it took 10000 nM to reach half-maximal inhibition (IC50) and the Emax is 100%.
In the case of `Cn1ccnc1COC(=O)c1cc(-c2ccccc2)c(=O)n2ccc3ccsc3c12` [Compound 27, 1-Methyl-1H-imidazol-2-yl-methyl 7-oxo-8-phenyl-7H-thieno[2,3-a]-quinolizine-10-carboxylate methanesulphonate], the midpoint of inhibition, the IC50, lay at 50000 nM and the Emax came to 100%.
The like results for `NC(=O)c1cc(-c2ccccc2)c(=O)n2ccc3ccsc3c12` [Compound 56, 7-Oxo-8-phenyl-7H-thieno[2,3-a]quinolizine-10-carboxylic acid amide] were, in that order, 1000 nM and 35%.
On to `CCN(CC)Cc1cccc(COC(=O)c2cc(-c3ccccc3)c(=O)n3ccc4ccsc4c23)c1` [Compound 60, 3-Diethylamino-methyl-benzyl 7-oxo-8-phenyl-7H-thieno[2,3-a]-quinolizine-10-carboxylate methanesulphonate], for which it took 1200 nM to reach half-maximal inhibition (IC50) and the Emax is 100%.
For the compound `COCCNC(=O)c1cc(-c2ccc(OCc3ccccc3)cc2)c(=O)n2ccc3ccsc3c12` [Compound 66, 8-(4-Benzyloxy-phenyl)-7-oxo-7H-thieno[2,3-a]quinolizine-10-carboxylic acid (2-methoxy-ethyl)-amide], the IC50 was determined as 22000 nM and the Emax was 60%.
The like results for `CCN(CCOC)C(=O)c1cc(-c2ccc(OCc3ccccc3)cc2)c(=O)n2ccc3ccsc3c12` [Compound 68, 8-(4-Benzyloxy-phenyl)-7-oxo-7H-thieno[2,3-a]quinolizine-10-carboxylic acid ethyl-(2-methoxy-ethyl)-amide] were, in that order, 8000 nM and 25%.
Taken in the same sequence, the figures for `COCCN(C(=O)c1cc(-c2ccc(OCc3ccccc3)cc2)c(=O)n2ccc3ccsc3c12)C(C)C` [Compound 69, 8-(4-Benzyloxy-phenyl)-7-oxo-7H-thieno[2,3-a]quinolizine-10-carboxylic acid isopropyl-(2-methoxy-ethyl)-amide] were 800 nM and 45%.
The like results for `COCCN(CC1CC1)C(=O)c1cc(-c2ccc(OCc3ccccc3)cc2)c(=O)n2ccc3ccsc3c12` [Compound 70, 8-(4-Benzyloxy-phenyl)-7-oxo-7H-thieno[2,3-a]quinolizine-10-carboxylic acid cyclopropylmethyl-(2-methoxy-ethyl)-amide] were, in that order, under 1000 nM and 100%.
For the compound `COCCN(Cc1ccccc1)C(=O)c1cc(-c2ccc(OCc3ccccc3)cc2)c(=O)n2ccc3ccsc3c12` [Compound 71, 8-(4-Benzyloxy-phenyl)-7-oxo-7H-thieno[2,3-a]quinolizine-10-carboxylic acid benzyl-(2-methoxy-ethyl)-amide], the IC50 amounted to 570 nM and the Emax worked out at 100%.
On to `COCCN(C(=O)c1cc(-c2ccc(OCc3ccccc3)cc2)c(=O)n2ccc3ccsc3c12)c1ccccc1` [Compound 72, 8-(4-Benzyloxy-phenyl)-7-oxo-7H-thieno[2,3-a]quinolizine-10-carboxylic acid (2-methoxy-ethyl)-phenyl-amide], for which the half-inhibitory concentration (IC50) was found to be 500 nM and the Emax was found to be 100%.
The like results for `O=C(c1cc(-c2ccc(OCc3ccccc3)cc2)c(=O)n2ccc3ccsc3c12)N(CCO)c1ccccc1` [Compound 73, 8-(4-Benzyloxy-phenyl)-7-oxo-7H-thieno[2,3-a]quinolizine-10-carboxylic acid (2-hydroxy-ethyl)-phenyl-amide] were, in that order, 1300 nM and 55%.
Take `COCCN(C(=O)c1cc(-c2ccc(OCc3ccccc3)cc2)c(=O)n2ccc3cc(C)sc3c12)c1ccccc1` [Compound 74]: the IC50 was 300 nM and the Emax came to 100%.
Consider `COCCN(C(=O)c1cc(-c2ccc(OCc3ccccc3)cc2)c(=O)n2ccc3cc(C(=O)N(C)C)sc3c12)c1ccccc1` [Compound 76, 8-(4-Benzyloxy-phenyl)-7-oxo-7H-thieno[2,3-a]quinolizine-2,10-dicarboxylicacid 2-dimethylamide 10-[(2-methoxy-ethyl)-phenyl-amide]], for which the IC50 was determined as 2800 nM and the Emax stood at 40%.
In the case of `CCc1cc2ccn3c(=O)c(-c4ccc(OCc5ccccc5)cc4)cc(C(=O)N(CCOC)c4ccccc4)c3c2s1` [Compound 78, 8-(4-Benzyloxy-phenyl)-2-ethyl-7-oxo-7H-thieno[2,3-a]quinolizine-10-carboxylic acid (2-methoxy-ethyl)-phenyl-amide], the Emax turned out to be 40%.
For `CCCc1cc2ccn3c(=O)c(-c4ccc(OCc5ccccc5)cc4)cc(C(=O)N(CCOC)c4ccccc4)c3c2s1` [Compound 79, 8-(4-Benzyloxy-phenyl)-2-propyl-7-oxo-7H-thieno[2,3-a]quinolizine-10-carboxylic acid (2-methoxy-ethyl)-phenyl-amide], the Emax lay within 20 to 35%.
As for `COCCN(C(=O)c1cc(-c2ccc(OCc3ccccc3)cc2)c(=O)n2ccc3cc(C(=O)O)sc3c12)c1ccccc1` [Compound 80, 8-(4-Benzyloxy-phenyl)-10-[(2-methoxy-ethyl)-phenyl-carbamoyl]-7-oxo-7H-thieno[2,3-a]quinolizine-2-carboxylic acid], the IC50 is 1000 to 3000 nM and the Emax lay in the range of 30 to 70%.
For the compound `CCN(CCOC)C(=O)c1cc(-c2ccc(-c3ccccc3)cc2)c(=O)n2ccc3ccsc3c12` [Compound 93, 8-(Biphenyl-4-yl)-7-oxo-7H-thieno[2,3-a]quinolizine-10-carboxylic acid ethyl-(2-methoxy-ethyl)-amide], it took 4200 nM to reach half-maximal inhibition (IC50) and the Emax is 100%.
For the compound `CCOC(=O)c1cc(-c2ccc(-c3ccccc3)cc2)c(=O)n2ccc3ccsc3c12` [Compound 94, Ethyl 8-(biphenyl-4-yl)-7-oxo-7H-thieno[2,3-a]quinolizine-10-carboxylate], the Emax was in the range of 20 to 40%.
`COCCN(CCOC)C(=O)c1cc(-c2ccc(-c3ccccc3)cc2)c(=O)n2ccc3ccsc3c12` [Compound 95, 8-(Biphenyl-4-yl)-7-oxo-7H-thieno[2,3-a]quinolizine-10-carboxylic acid bis-(2-methoxy-ethyl)-amide]: the midpoint of inhibition, the IC50, lay at 1300 nM and the Emax is 100%.
For `COC(=O)c1cc(-c2ccc(Oc3ccccc3)cc2)c(=O)n2ccc3ccsc3c12` [Compound 96, Methyl 7-oxo-8-(4-phenoxy-phenyl)-7H-thieno[2,3-a]quinolizine-10-carboxylate], the IC50 turned out to be 1000 nM and the Emax turned out to be 40%.
The like results for `COCCN(CCOC)C(=O)c1cc(-c2ccc(Oc3ccccc3)cc2)c(=O)n2ccc3ccsc3c12` [Compound 97, 7-Oxo-8-(4-phenoxy-phenyl)-7H-thieno[2,3-a]quinolizine-10-carboxylic acid bis-(2-methoxy-ethyl)-amide] were, in that order, 2200 nM and 100%.
Taken in the same sequence, the figures for `COCCNC(=O)c1cc(-c2ccc(Oc3ccccc3)cc2)c(=O)n2ccc3ccsc3c12` [Compound 98, 7-Oxo-8-(4-phenoxy-phenyl)-7H-thieno[2,3-a]quinolizine-10-carboxylic acid (2-methoxy-ethyl)-amide] were 2400 nM and 70 to 90%.
